Reference: patent publication US20250115607A1, “PYRIDINE DERIVATIVES” (Hoffmann-La Roche Inc., priority 2022, published 2025)

Columns and labels:
Type in all cases: biochemical
SIK2 = SIK2 (Homo sapiens (Human), UniProt Q9H0K1); test: Phosphorylation assay SIK2 (RapidFire mass spectrometry); details: 0.5 nM SIK2, CHK-peptide, ATP, 30 min pre-incubation, 45 min incubation; read-out: SIK2 RF IC50
Protocol: (§1) In the presence of SIK2 (resp. SIK1 or SIK3) and ATP the CHK-peptide ([…] with C-terminal arginine amide modification) were phosphorylated at one of the four feasible serine's. Only one phosphorylation is observed under the assay conditions. 60 nl of each compound dilution series (12 point; dilution factor 3, generally 30 μM to 170 pM) in DMSO were transferred by acoustic dispensing to the assay plate and 30 minutes pre-incubated (ambient temperature) after the addition of 5 μl SIK1 (5 nM) resp. 5 μl SIK2 (0.5 nM) or 7 μl SIK3 (1.5 nM) in assay-buffer (12.5 mM HEPES (pH 7.0), 10 mM magnesium acetate, 0.005% BSA). 10 μM CHK-peptide solution and 5 μl of 100 μM ATP for SIK1 & SIK2 resp. 3 μl for SIK3 in assay-buffer were added and incubated ambient for 45 minutes. 40 μl of 0.125% formic acid in water were added to quench the reaction. RapidFire (RF) Mass Spectrometry was utilized for data generation as described below. The multiple charged species (3-5 charges) for the phosphorylated and non-phosphorylated form measured by MRM (Multiple Reaction Monitoring; API5000 or 6500+) or EIC (Extracted Ion Current; QToF) were summed up and the ratio calculated (sum phosphorylated species/sum all species) for data evaluation. Normalization was performed by Genedata software based on the non-inhibition control DMSO and the commercially available STK inhibitor @1 μM YKL-05-099 (CAS number 1936529-65-5). The results of the assay are expressed in half-maximal inhibitory concentrations (IC50s) and are summarized below in Table 1.
(§2) Samples were aspirated by vacuum for max. 600 ms and loaded to C4-cartridge (Agilent; #G9203A) for 3000 ms@1.5 ml/min with 0.1% formic acid in water. Afterwards samples were transferred to the API5000 (API6500+) or QToF mass spectrometer for 4000 ms@1.25 ml/min with 90% acetonitrile; 10% water; 0.007% TFA; 0.093 formic acid. The cartridge was reconditioned for additional 500 ms with 0.1% formic acid in water.
(§3) All MS analyses using the following MS-setup in MRM mode: Electrospray positive; Ion Spray Voltage: 4000V; Temperature: 550° C.; Collision Gas: 5; Curtain Gas: 15; Gas 1: 40; Gas 2: 42; EP: 10. DP=declustering potential; CE=collision energy; CXP=cell exit potential.
(§4) All MS analyses using the following MS-setup in Mode MS: Dual AJS Electrospray positive; VCap: 3000V; Drying & Sheath gas: 340° C.@81/min; Nebulizer: 60 psig; Nozzle Voltage: 2000V; Fragmentor: 130V; Skimmer: 35V; Oct1 RF Vpp: 700V; Ref masses on@5 spectra/s

SIK1 = SIK1 (Homo sapiens (Human), UniProt P57059); test: Phosphorylation assay SIK1 (RapidFire mass spectrometry); details: 5 nM SIK1, CHK-peptide, ATP, 30 min pre-incubation, 45 min incubation; read-out: SIK1 RF IC50
Protocol: as §1, §2, §3, §4

SIK3 = SIK3 (Homo sapiens (Human), UniProt Q9Y2K2); test: Phosphorylation assay SIK3 (RapidFire mass spectrometry); details: 1.5 nM SIK3, CHK-peptide, ATP, 30 min pre-incubation, 45 min incubation; read-out: SIK3 RF IC50
Protocol: as §1, §2, §3, §4

SIK1, sequence (P57059 whole entry): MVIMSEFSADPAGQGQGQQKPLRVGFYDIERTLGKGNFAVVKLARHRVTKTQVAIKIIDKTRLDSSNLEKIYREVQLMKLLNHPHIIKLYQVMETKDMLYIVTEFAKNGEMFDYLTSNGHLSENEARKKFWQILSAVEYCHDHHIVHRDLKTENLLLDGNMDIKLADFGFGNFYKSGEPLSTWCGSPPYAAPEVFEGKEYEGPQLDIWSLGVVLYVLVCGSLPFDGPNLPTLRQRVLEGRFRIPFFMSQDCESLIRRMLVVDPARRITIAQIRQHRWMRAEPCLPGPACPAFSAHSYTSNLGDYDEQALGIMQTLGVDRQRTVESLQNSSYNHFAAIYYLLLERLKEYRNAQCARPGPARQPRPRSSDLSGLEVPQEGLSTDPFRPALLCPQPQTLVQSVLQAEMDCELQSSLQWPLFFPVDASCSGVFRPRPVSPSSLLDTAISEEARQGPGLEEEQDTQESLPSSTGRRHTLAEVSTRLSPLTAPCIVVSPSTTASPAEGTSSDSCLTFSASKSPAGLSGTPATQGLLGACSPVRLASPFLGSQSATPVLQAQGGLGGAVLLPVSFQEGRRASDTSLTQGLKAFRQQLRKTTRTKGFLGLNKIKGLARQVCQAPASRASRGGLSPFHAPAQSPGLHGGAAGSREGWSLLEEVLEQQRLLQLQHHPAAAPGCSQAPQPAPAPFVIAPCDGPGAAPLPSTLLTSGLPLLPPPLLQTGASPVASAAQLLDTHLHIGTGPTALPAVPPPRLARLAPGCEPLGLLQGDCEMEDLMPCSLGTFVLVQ
SIK3, sequence (Q9Y2K2 whole entry): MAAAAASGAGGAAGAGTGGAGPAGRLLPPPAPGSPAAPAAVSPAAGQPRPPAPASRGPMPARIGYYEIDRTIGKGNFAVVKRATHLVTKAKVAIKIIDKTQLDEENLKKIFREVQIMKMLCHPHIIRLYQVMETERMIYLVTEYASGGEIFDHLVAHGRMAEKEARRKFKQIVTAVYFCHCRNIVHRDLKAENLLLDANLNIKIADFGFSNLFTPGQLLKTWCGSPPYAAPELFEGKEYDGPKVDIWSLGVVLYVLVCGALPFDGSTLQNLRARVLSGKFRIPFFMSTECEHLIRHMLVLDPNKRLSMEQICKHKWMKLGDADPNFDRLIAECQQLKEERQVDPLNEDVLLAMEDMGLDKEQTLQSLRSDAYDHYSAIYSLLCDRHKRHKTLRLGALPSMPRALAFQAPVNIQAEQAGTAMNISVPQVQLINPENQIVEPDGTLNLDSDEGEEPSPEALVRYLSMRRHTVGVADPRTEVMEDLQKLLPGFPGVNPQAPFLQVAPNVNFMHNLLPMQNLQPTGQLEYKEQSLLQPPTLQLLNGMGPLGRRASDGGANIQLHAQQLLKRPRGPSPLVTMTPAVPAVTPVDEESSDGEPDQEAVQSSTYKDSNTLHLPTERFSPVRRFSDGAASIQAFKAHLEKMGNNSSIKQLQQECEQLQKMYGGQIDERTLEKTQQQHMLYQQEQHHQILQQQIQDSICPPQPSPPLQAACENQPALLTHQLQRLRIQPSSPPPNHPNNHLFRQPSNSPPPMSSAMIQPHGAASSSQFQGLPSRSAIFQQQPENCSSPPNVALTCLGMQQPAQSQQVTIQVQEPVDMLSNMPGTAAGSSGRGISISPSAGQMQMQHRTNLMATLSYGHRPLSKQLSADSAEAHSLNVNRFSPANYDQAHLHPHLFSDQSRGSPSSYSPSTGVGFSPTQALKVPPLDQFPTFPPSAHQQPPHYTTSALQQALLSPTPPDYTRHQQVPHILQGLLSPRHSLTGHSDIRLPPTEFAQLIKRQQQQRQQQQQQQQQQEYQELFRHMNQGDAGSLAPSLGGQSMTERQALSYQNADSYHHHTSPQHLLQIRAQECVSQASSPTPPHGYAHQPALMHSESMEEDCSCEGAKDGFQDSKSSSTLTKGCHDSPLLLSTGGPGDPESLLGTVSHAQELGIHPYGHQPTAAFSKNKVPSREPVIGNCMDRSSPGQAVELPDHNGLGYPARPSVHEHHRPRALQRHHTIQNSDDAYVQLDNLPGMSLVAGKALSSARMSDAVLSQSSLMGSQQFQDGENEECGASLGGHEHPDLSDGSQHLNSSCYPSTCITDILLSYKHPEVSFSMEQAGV
SIK2, sequence (Q9H0K1 whole entry): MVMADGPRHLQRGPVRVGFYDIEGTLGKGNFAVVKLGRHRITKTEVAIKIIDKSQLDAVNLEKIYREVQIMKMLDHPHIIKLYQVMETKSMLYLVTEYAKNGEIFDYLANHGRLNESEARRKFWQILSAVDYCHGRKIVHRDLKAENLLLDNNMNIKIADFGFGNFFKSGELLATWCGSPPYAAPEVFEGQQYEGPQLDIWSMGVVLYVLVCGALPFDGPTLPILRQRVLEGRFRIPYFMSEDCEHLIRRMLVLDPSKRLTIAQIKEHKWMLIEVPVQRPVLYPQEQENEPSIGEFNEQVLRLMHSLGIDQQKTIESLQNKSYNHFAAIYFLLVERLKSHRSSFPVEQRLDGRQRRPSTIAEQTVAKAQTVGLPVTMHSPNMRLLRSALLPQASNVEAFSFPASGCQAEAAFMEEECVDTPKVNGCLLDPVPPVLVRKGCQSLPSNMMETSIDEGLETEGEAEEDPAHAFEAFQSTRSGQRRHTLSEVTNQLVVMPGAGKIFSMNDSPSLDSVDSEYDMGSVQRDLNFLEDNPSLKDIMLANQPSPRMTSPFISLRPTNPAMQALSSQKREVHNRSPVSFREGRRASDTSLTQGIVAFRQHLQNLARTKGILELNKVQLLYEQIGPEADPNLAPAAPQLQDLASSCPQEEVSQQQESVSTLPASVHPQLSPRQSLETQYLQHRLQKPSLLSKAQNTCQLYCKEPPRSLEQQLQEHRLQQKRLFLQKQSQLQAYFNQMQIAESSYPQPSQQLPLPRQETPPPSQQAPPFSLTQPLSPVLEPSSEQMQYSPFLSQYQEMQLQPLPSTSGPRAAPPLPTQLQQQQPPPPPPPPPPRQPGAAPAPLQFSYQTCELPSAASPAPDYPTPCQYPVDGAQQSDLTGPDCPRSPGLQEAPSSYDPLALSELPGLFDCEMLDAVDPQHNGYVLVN

Structure (SMILES) | IC50 (SIK2) [nM] | IC50 (SIK1) [nM] | IC50 (SIK3) [nM]
CC(=O)c1ccc(-n2cnc3cc(Nc4ccc(C)nn4)ncc32)nc1-n1nc(C#N)cc1C [Example 1, 1-[3-Acetyl-6-[6-[(6-methylpyridazin-3-yl)amino]imidazo[4,5-c]pyridin-3-yl]-2-pyridyl]-5-methyl-pyrazole-3-carbonitrile] | 42 | 4520 | 121
Cc1ccc(Nc2cc3ncn(-c4ccc(C(C)O)c(-n5nc(C#N)cc5C)n4)c3cn2)nn1 (stereo not drawn) [Example 2, 1-[3-(1-Hydroxyethyl)-6-[6-[(6-methylpyridazin-3-yl)amino]imidazo[4,5-c]pyridin-3-yl]-2-pyridyl]-5-methyl-pyrazole-3-carbonitrile] | 5 | 366 | 3
Cc1ccc(Nc2cc3ncn(-c4ccc(C(C)O)c(-n5nc(C#N)cc5C)n4)c3cn2)cn1 (stereo not drawn) [Example 3, 1-[3-(1-Hydroxyethyl)-6-[6-[(6-methyl-3-pyridyl)amino]imidazo[4,5-c]pyridin-3-yl]-2-pyridyl]-5-methyl-pyrazole-3-carbonitrile] | 22 | 78 | 22
Cc1ccc(Nc2cc3ncn(-c4ccc(C(C)O)c(-c5cn(CC(F)(F)F)nc5C)n4)c3cn2)nn1 (stereo not drawn) [Example 4, 1-[6-[6-[(6-Methylpyridazin-3-yl)amino]imidazo[4,5-c]pyridin-3-yl]-2-[3-methyl-1-(2,2,2-trifluoroethyl)pyrazol-4-yl]-3-pyridyl]ethanol] | 3 | 396 | 3
CC(=O)c1ccc(-n2cnc3cc(N4CCOc5cc(C)nnc54)ncc32)nc1-n1nc(C#N)cc1C [Example 6, 1-[3-Acetyl-6-[6-(3-methyl-6,7-dihydropyridazino[4,3-b][1,4]oxazin-8-yl)imidazo[4,5-c]pyridin-3-yl]-2-pyridyl]-5-methyl-pyrazole-3-carbonitrile] | 2540 | 17400 | 3290
Cc1ccc(Nc2cc3ncn(-c4ccc(C(C)O)c(-n5nc(C(F)F)cc5C)n4)c3cn2)nn1 (stereo not drawn) [Example 7, 1-[2-[3-(difluoromethyl)-5-methyl-pyrazol-1-yl]-6-[6-[(6-methylpyridazin-3-yl)amino]imidazo[4,5-c]pyridin-3-yl]-3-pyridyl]ethanol] | 16 | 879 | 7
